# Reference: patent US20030229067A1, “Pyrrolopyrimidine A2b selective antagonist compounds, their synthesis and use” (priority 2001, published 2003)
row,melting point,SMILES
1,120 to 125 °C,"CC(=O)NCCNc1nc(-c2ccccc2)nc2[nH]c(C(=O)N3C[C@@H](C)NC[C@@H]3C)cc12 (relative stereo) [26.31, N-{2-[6-(trans-2,5-Dimethylpiperazine-1-carbonyl)-2-phenyl-7H-pyrrolo[2,3-d]pyrimidin-4-ylamino]-ethyl}-acetamide]"
2,80 to 85 °C (dec.),"COC(=O)c1cccc(OCc2cc3c(NCCNC(C)=O)nc(-c4ccccc4)nc3[nH]2)c1 [9.19, 3-[4-(2-Acetylaminoethylamino)-2-phenyl-7H-pyrrolo[2,3-d]pyrimidin-6-ylmethoxy]-benzoic acid methyl ester]"
3,83 to 87 °C (dec.),"CC(=O)NCCNc1nc(-c2ccccc2)nc2[nH]c(/C=N/OCc3ccccc3)cc12 [22.1, N-{2-[6-(Benzyloxyiminomethyl)-2-phenyl-7H-pyrrolo[2,3-d]pyrimidin-4-ylamino]-ethyl}-acetamide]"
4,250 °C,"CC(=O)NCCNc1nc(-c2ccccc2)nc2[nH]c(C(=O)N3CCOCC3)cc12 [26.1, N-{2-[6-(Morpholine-4-carbonyl)-2-phenyl-7H-pyrrolo[2,3-d]pyrimidin-4-ylamino]-ethyl}-acetamide]"
5,250 to 257 °C (dec.),"CC(=O)NCCNc1nc(-c2ccccc2)nc2[nH]c(C(=O)Nc3ccc(Oc4ccccc4)cc3)cc12 [26.2, 4-(2-Acetylaminoethylamino)-2-phenyl-7H-pyrrolo[2,3-d]pyrimidine-6-carboxylic acid (4-phenoxyphenyl)-amide]"
6,140 to 145 °C (dec.),"CC(=O)NCCNc1nc(-c2ccccc2)nc2[nH]c(C(=O)N3CCC(O)(C(C)C)CC3)cc12 [26.4, N-{2-[6-(4-Hydroxy4-isopropylpiperidine-1-carbonyl)-2-phenyl-7H-pyrrolo[2,3-d]pyrimidin-4-ylamino]-ethyl}-acetamide]"
7,158 to 162 °C (dec.),"CC(=O)NCCNc1nc(-c2ccccc2)nc2[nH]c(C(=O)N3CCC(O)(c4ccccc4)CC3)cc12 [26.7, N-{2-[6-(4-Hydroxy4-phenylpiperidine-1-carbonyl)-2-phenyl-7H-pyrrolo[2,3-d]pyrimidin-4-ylamino]-ethyl}-acetamide]"
8,140 to 145 °C (dec.),"CC(=O)NCCNc1nc(-c2ccccc2)nc2[nH]c(C(=O)N3CCC(O)(Cc4ccccc4)CC3)cc12 [26.8, N-{2-[6-(4-Benzyl-4-hydroxypiperidine-1-carbonyl)-2-phenyl-7H-pyrrolo[2,3-d]pyrimidin-4-ylamino]-ethyl}-acetamide]"
9,200 to 205 °C (dec.),"NC(=O)CNc1nc(-c2ccccc2)nc2[nH]c(C(=O)N3CCC(O)(c4ccc(Cl)cc4)CC3)cc12 [26.9, 2-{6-[4-(4-Chlorophenyl)-4-hydroxypiperidine-1-carbonyl]-2-phenyl-7H-pyrrolo[2,3-d]pyrimidin-4-ylamino}-acetamide]"
10,145 to 150 °C,CC(=O)NCCNc1nc(-c2ccccc2)nc2[nH]c(C(=O)N3CCC(O)(c4cccc(C(F)(F)F)c4)CC3)cc12 [26.10]
11,226 to 228 °C,"CC(=O)NCCNc1nc(-c2ccccc2)nc2[nH]c(C(=O)N3CCN(CCc4ccccc4)CC3)cc12 [26.11, N-{2-[6-(4-Phenethylpiperazine-1-carbonyl)-2-phenyl-7H-pyrrolo[2,3-d]pyrimidin-4-ylamino]-ethyl}-acetamide]"
12,225 to 230 °C (dec.),"CC(=O)NCCNc1nc(-c2ccccc2)nc2[nH]c(C(=O)N3CCN(CCCN4CCOCC4)CC3)cc12 [26.12, N-(2-{6-[4-(3-Morpholin-4-ylpropyl)-piperazine-1-carbonyl]-2-phenyl-7H-pyrrolo[2,3-d]pyrimidin-4-ylamino}-ethyl)-acetamide]"
13,172 to 175 °C,"CC(=O)NCCNc1nc(-c2ccccc2)nc2[nH]c(C(=O)N3CC=C(c4ccc(Cl)cc4)CC3)cc12 [26.13, N-(2-{6-[4-(4-Chlorophenyl)-3,6-dihydro-2H-pyridine-17carbonyl]-2-phenyl-7H-pyrrolo[2,3-d]pyrimidin-4-ylamino}-ethyl)-acetamide]"
14,235 to 240 °C (dec.),"CC(=O)NCCNc1nc(-c2ccccc2)nc2[nH]c(C(=O)N3CCN(Cc4ccccc4)CC3)cc12 [26.14, N-{2-[6-(4-Benzylpiperazine-1-carbonyl)-2-phenyl-7H-pyrrolo[2,3-d]pyrimidin-4-ylamino]-ethyl}-acetamide]"
15,213 to 217 °C,"NC(=O)CNc1nc(-c2ccccc2)nc2[nH]c(C(=O)N3CCN(CCCc4ccccc4)CC3)cc12 [26.15, 2-{2-Phenyl-6-[4-(3-phenylpropyl)-piperazine-1-carbonyl]-7H-pyrrolo[2,3-d]pyrimidin-4-ylamino}-acetamide]"
16,227 to 228 °C,"CC(=O)NCCNc1nc(-c2ccccc2)nc2[nH]c(C(=O)N3CCN(CCOc4ccc(Cl)cc4)CC3)cc12 [26.16, N-[2-(6-{4-[2-(4-Chlorophenoxy)-ethyl]-piperazine-1-carbonyl}-2-phenyl-7H-pyrrolo[2,3-d]pyrimidin-4-ylamino)-ethyl]-acetamide]"
17,280 to 285 °C (dec.),CC(=O)NCCNc1nc(-c2ccccc2)nc2[nH]c(C(=O)NC3CC4CCC3C4)cc12 (stereo not drawn) [26.17]
18,150 to 153 °C,"CC(=O)NCCNc1nc(-c2ccccc2)nc2[nH]c(C(=O)N3CCC(O)(c4ccc(F)cc4)CC3)cc12 [26.18, N-(2-{6-[4-(4-Fluorophenyl)4-hydroxypiperidine-1-carbonyl]-2-phenyl-7H-pyrrolo[2,3-d]pyrimidin-4-ylamino}-ethyl)-acetamide]"
19,150 to 155 °C (dec.),"CC(=O)NCCNc1nc(-c2ccccc2)nc2[nH]c(C(=O)N3CCC(C#N)(c4ccccc4)CC3)cc12 [26.19, N-{2-[6-(4-Cyano-4-phenylpiperidine-1-carbonyl)-2-phenyl-7H-pyrrolo[2,3-d]pyrimidin-4-ylamino]-ethyl}-acetamide]"
20,140 to 142 °C,"CC(=O)NCCNc1nc(-c2ccccc2)nc2[nH]c(C(=O)Nc3cccc(Oc4ccccc4)c3)cc12 [26.20, 4-(2-Acetylaminoethylamino)-2-phenyl-7H-pyrrolo[2,3-d]pyrimidine-6-carboxylic acid (3-phenoxyphenyl)-amide]"
21,213 to 215 °C,"CC(=O)NCCNc1nc(-c2ccccc2)nc2[nH]c(C(=O)N3CCN(CC#Cc4ccccc4)CC3)cc12 [26.21, N-(2-{2-Phenyl-6-[4-(3-phenylprop-2-ynyl)-piperazine-1-carbonyl]-7H-pyrrolo[2,3-d]pyrimidin-4-ylamino}-ethyl)-acetamide]"
22,138 to 140 °C,"CC(=O)NCCNc1nc(-c2ccccc2)nc2[nH]c(C(=O)N3C[C@@H](C)N[C@@H](C)C3)cc12 [26.22, N-{2-[6-(cis-3,5-Dimethylpiperazine-1-carbonyl)-2-phenyl-7H-pyrrolo[2,3-d]pyrimidin-4-ylamino]-ethyl}-acetamide]"
23,86 to 89 °C,"CC(=O)NCCNc1nc(-c2ccccc2)nc2[nH]c(C(=O)N3C[C@@H](C)N(CCCc4ccccc4)[C@@H](C)C3)cc12 [26.24, N-(2-{6-[cis-3,5-Dimethyl-4-(3-phenylpropyl)-piperazine-1-carbonyl]-2-phenyl-7H-pyrrolo[2,3-d]pyrimidin-4-ylamino}-ethyl)-acetamide]"
24,254 to 256 °C,"CC(=O)NCCNc1nc(-c2ccccc2)nc2[nH]c(C(=O)N3CCC(c4ccccc4)(c4ccccc4)CC3)cc12 [26.25, N-{2-[6-(4,4-Diphenylpiperidine-1-carbonyl)-2-phenyl-7H-pyrrolo[2,3-d]pyrimidin-4-ylamino]-ethyl}-acetamide]"
